Assay results from patent US7700786B2, “Pyrazole derivative, intermediate therefor, processes for producing these, and herbicide containing these as active ingredient” (Sagami Chemical Research Center, priority 2001, dated 2010).

What was measured:
[1] = tested on: annual broadleaf weeds such as Lindernia procumbens, Rotala indica and Elatine triandra; assay: Herbicidal efficacy test by pre-emergence treatment under submergence condition; format: in vivo; details: 15th day after treatment, ratings of 1 to 5
From the text: (§3) A 1/10,000-are pot was filled with paddy field soil, and, after plowing, seeds of Echinochloa oryzicola, Cyperus difformis, Monochoria vaginalis, Scirpus juncoides, Eleocharis acicularis and other annual broadleaf weeds such as Lindernia procumbens, Rotala indica and Elatine triandra were sown. Rice (oryza sativa) seedlings (cultiver “Koshihikari”) at a 2.5-leaf stage were transplanted and kept under a submergence condition. After one day, the wettable powder or emulsifiable concentrate of the compound of the present invention, prepared according to Preparation Example, was diluted and dropped on a water surface at a predetermined dose.

Digitaria ciliaris = assay: Herbicidal efficacy test by soil treatment before germination under upland field condition; format: in vivo; details: dose 1 kg/ha; 21st day after treatment; ratings of 1 to 5
From the text: (§1) A vat having an area of 5×10 cm^2 and a depth of 5 cm was filled with upland field soil, and seeds of Chenopodium album, Echinochloa crus-galli, Amaranthus viridis, Digitaria ciliaris and sweet corn (Zea mays) were sown thereon and covered with soil by a depth of 0.5 cm.

Chenopodium album [2] = assay: as above; format: in vivo; details: dose 1 kg/ha; 21st day after treatment; ratings of 1 to 5
From the text: as §1

Amaranthus viridis [3] = assay: as above; format: in vivo; details: dose 1 kg/ha; 21st day after treatment; ratings of 1 to 5
From the text: as §1

Echinochloa crus-galli [4] = assay: as above; format: in vivo; details: dose 1 kg/ha; 21st day after treatment; ratings of 1 to 5
From the text: as §1

sweet corn (Zea mays) = assay: Injury to corn, soil treatment before germination under upland field condition; format: in vivo; details: dose 1 kg/ha; 21st day after treatment; ratings of 1 to 5
From the text: as §1

Eleocharis acicularis = assay: Herbicidal efficacy test by pre-emergence treatment under submergence condition; format: in vivo; details: 15th day after treatment, ratings of 1 to 5; note: key: 1 shows no influence; 5 shows complete die
From the text: as §3

Chenopodium album [5] = assay: Herbicidal efficacy test by foliar treatment after germination under upland field condition; format: in vivo; details: dose 1 kg/ha, rated 1 to 5 on the 14th day after treatment; note: key: 1 shows no influence; 5 shows complete die
From the text: (§2) A vat having an area of 5×10 cm^2 and a depth of 5 cm was filled with upland field soil, and seeds of Chenopodium album, Echinochloa crus-galli, Amaranthus viridis and Abutilon theophrasti were sown thereon and covered with soil by a depth of 0.5 cm. Water was sprayed as required to grow them for 14 days.

Amaranthus viridis [6] = assay: as above; format: in vivo; details: dose 1 kg/ha, rated 1 to 5 on the 14th day after treatment
From the text: as §2

Echinochloa crus-galli [7] = assay: as above; format: in vivo; details: dose 1 kg/ha, rated 1 to 5 on the 14th day after treatment
From the text: as §2

Echinochloa oryzicola = assay: Herbicidal efficacy test by pre-emergence treatment under submergence condition; format: in vivo; details: 15th day after treatment, ratings of 1 to 5
From the text: as §3

Scirpus juncoides = assay: as above; format: in vivo; details: 15th day after treatment, ratings of 1 to 5
From the text: as §3

Monochoria vaginalis = assay: as above; format: in vivo; details: 15th day after treatment, ratings of 1 to 5; note: key: 1 shows no influence; 5 shows complete die
From the text: as §3

Abutilon theophrasti = assay: Herbicidal efficacy test by foliar treatment after germination under upland field condition; format: in vivo; details: Dc: Digitaria ciliaris (table footnote; method names Abutilon theophrasti), dose 1 kg/ha, rated 1 to 5 on the 14th day after treatment
Cyperus difformis = assay: Herbicidal efficacy test by pre-emergence treatment under submergence condition; format: in vivo; details: 15th day after treatment, ratings of 1 to 5; note: key: 1 shows no influence; 5 shows complete die
From the text: as §3

[8] = tested on: Rice (oryza sativa) seedlings (cultiver Koshihikari); details: in vivo
From the text: as §3
Throughout, for Herbicidal activity Av: key: 1 shows no influence; 5 shows complete die.
Throughout, for Herbicidal activity Ca: key: 1 shows no influence; 5 shows complete die.

SMILES	Herbicidal efficacy Blw ([1]; dose 0.5 kg/ha)	Herbicidal efficacy Blw ([1]; dose 1 kg/ha)	Herbicidal activity Dc (Digitaria ciliaris)	Herbicidal activity Ca (Chenopodium album [2])	Herbicidal activity Av (Amaranthus viridis [3])	Herbicidal activity Ec (Echinochloa crus-galli [4])	Herbicidal efficacy Ea (Eleocharis acicularis; dose 0.5 kg/ha)	Herbicidal efficacy Ea (Eleocharis acicularis; dose 1 kg/ha)	Herbicidal activity Ca (Chenopodium album [5])	Herbicidal activity Av (Amaranthus viridis [6])	Herbicidal activity Ec (Echinochloa crus-galli [7])	Herbicidal efficacy Eo (Echinochloa oryzicola; dose 0.5 kg/ha)	Herbicidal efficacy Eo (Echinochloa oryzicola; dose 1 kg/ha)	Herbicidal efficacy Sj (Scirpus juncoides; dose 0.5 kg/ha)	Herbicidal efficacy Sj (Scirpus juncoides; dose 1 kg/ha)	Herbicidal efficacy Mv (Monochoria vaginalis; dose 0.5 kg/ha)	Herbicidal efficacy Mv (Monochoria vaginalis; dose 1 kg/ha)	Herbicidal activity Dc (Abutilon theophrasti)	Herbicidal efficacy Cd (Cyperus difformis; dose 0.5 kg/ha)	Herbicidal efficacy Cd (Cyperus difformis; dose 1 kg/ha)	further results
CCNC(=O)n1nc(Oc2c(Cl)cc(C(F)(F)F)cc2Cl)c(Cl)c1C [Compound 3-253]	5	5	5	5	5	4	5	5	5	5	5	5	5	5	5	5	5	5	5	5	Injury Zm (sweet corn (Zea mays)): 1.5
CNC(=O)n1nc(Oc2c(Cl)cc(C(F)(F)F)cc2Cl)c(Cl)c1C [Compound 3-249]	5	5	5	5	5	4.5	5	5	5	5	5	5	5	5	5	5	5	5	5	5	Injury Zm (sweet corn (Zea mays)): 1.2
CNC(=O)n1nc(Oc2c(Cl)cc(C(F)(F)F)cc2Cl)cc1C [Compound 3-14]	5	5	5	5	5	4.9	5	5	5	5	5	5	5	5	5	5	5	5	5	5	–
Cc1cc(Oc2c(Cl)cc(C(F)(F)F)cc2Cl)nn1C(=O)NCCBr [Compound 3-146]	5	5	–	–	–	–	5	5	–	–	–	5	5	5	5	5	5	–	5	5	Injury Os [8]: 1
CCNC(=S)n1nc(Oc2c(Cl)cc(C(F)(F)F)cc2Cl)cc1C [Compound 3-45]	5	5	5	5	5	5	5	5	5	5	5	5	5	4	5	5	5	5	5	5	Injury Zm (sweet corn (Zea mays)): 2
CCNC(=O)n1nc(Oc2c(Cl)cc(C(F)(F)F)cc2Cl)cc1C [Compound 3-44]	5	5	5	5	5	5	5	5	5	5	5	5	5	5	5	5	5	5	5	5	Injury Zm (sweet corn (Zea mays)): 3
CCNC(=O)n1nc(Oc2c(Cl)cc(C(F)(F)F)cc2Cl)cc1CC [Compound 3-330]	5	5	5	5	5	3.5	5	5	5	5	5	5	5	5	5	5	5	5	5	5	Injury Zm (sweet corn (Zea mays)): 1.5
COCNC(=S)n1nc(Oc2c(Cl)cc(C(F)(F)F)cc2Cl)cc1C [Compound 3-169]	5	5	–	–	–	–	5	5	–	–	–	5	5	4	4.2	5	5	–	5	5	Injury Os [8]: 1
